“And” between values parts separate entries of the source, which are not always exact repeats. Equal entries are not always repeated. Inconclusive results and toxic doses are left out. Rule for the calls: active = survival T/C of 150% or more; inactive = T/C below 125% in these data.
System: P1534 leukemia ip, CD2F1 mice, survival T/C
Assay: NCI In Vivo Anticancer Drug Screen. Data for tumor model P1534 Leukemia (intraperitoneal) in CD2F1 (CDF1) mice
Conditions: endpoint: mean survival time, higher = longer survival
Protocol: The antitumor activity of compounds was measured in mice bearing transplantable tumors. Survival or tumor size were measured and the results are expressed as the measurement made in the treated group (T) divided by the measurement made in the vehicle treated control group (C). The tumor model used in this assay is P1534 Leukemia (intraperitoneal) in CD2F1 (CDF1) mice

[1] = dose: 8.0 mg/kg/injection, schedule: Q01DX010 (ip), vehicle: saline
[2] = dose: 10.0 mg/kg/injection, schedule: Q01DX010 (ip), vehicle: saline
[3] = dose: 20.0 mg/kg/injection, schedule: Q01DX010 (ip), vehicle: saline
[4] = dose: 40.0 mg/kg/injection, schedule: Q01DX010 (ip), vehicle: saline
[5] = dose: 80.0 mg/kg/injection, schedule: Q01DX010 (ip), vehicle: saline
[6] = dose: 50.0 mg/kg/injection, schedule: Q01DX010 (ip), vehicle: saline
[7] = dose: 100.0 mg/kg/injection, schedule: Q01DX010 (ip), vehicle: saline
[8] = dose: 200.0 mg/kg/injection, schedule: Q01DX010 (ip), vehicle: saline
[9] = dose: 12.5 mg/kg/injection, schedule: Q01DX010 (ip), vehicle: saline
[10] = dose: 25.0 mg/kg/injection, schedule: Q01DX010 (ip), vehicle: saline
[11] = dose: 7.5 mg/kg/injection, schedule: Q01DX010 (ip), vehicle: saline
[12] = dose: 15.0 mg/kg/injection, schedule: Q01DX010 (ip), vehicle: saline
[13] = dose: 30.0 mg/kg/injection, schedule: Q01DX010 (ip), vehicle: saline
[14] = dose: 400.0 mg/kg/injection, schedule: Q01DX010 (ip), vehicle: saline

Measured: T/C

NNC(=O)c1cnccn1
inactive: dose: 40.0 mg/kg/injection, schedule: Q01DX010 (ip), vehicle: water 121 % of control | dose: 80.0 mg/kg/injection, schedule: Q01DX010 (ip), vehicle: water 110 % of control and 97 % of control

COc1cc2c3c(c4cc(OC)c(OC)cc4c2cc1OC)CN1CCC[C@H]1C3
inactive: dose: 3.9 mg/kg/injection, schedule: Q01DX010 (ip), vehicle: saline 115 % of control | dose: 7.8 mg/kg/injection, schedule: Q01DX010 (ip), vehicle: saline 107 % of control

CCCCOP(=S)(N1CC1)N1CC1
inactive: dose: 4.0 mg/kg/injection, schedule: Q01DX010 (ip), vehicle: saline 115 % of control | [1] 123 % of control

O=C(Nc1ccc(C2=NCCN2)cc1)c1ccc(C(=O)Nc2ccc(C3=NCCN3)cc2)cc1
inactive: [1] 104 % of control | dose: 16.0 mg/kg/injection, schedule: Q01DX010 (ip), vehicle: saline 100 % of control | dose: 32.0 mg/kg/injection, schedule: Q01DX010 (ip), vehicle: saline 104 % of control and 100 % of control | dose: 64.0 mg/kg/injection, schedule: Q01DX010 (ip), vehicle: saline 104 % of control and 100 % of control

Cn1c(N)nc2nc[nH]c2c1=S
inactive: [2] 100 % of control | [3] 100 % of control | [4] 96 % of control | [5] 110 % of control

O=c1ccc2ccccc2o1
inactive: [6] 107 % of control | [7] 107 % of control | [8] 107 % of control

COc1ccc2cc3[n+](cc2c1O)CCc1cc2c(cc1-3)OCO2
inactive: [9] 111 % of control | [10] 123 % of control | [6] 115 % of control

CC[C@]12C=CCN3CC[C@@]4(c5ccc(OC)cc5N(C)[C@H]4[C@@](O)(C(=O)OC)[C@@H]1OC(C)=O)[C@@H]32
inactive: [11] 93 % of control | [12] 93 % of control | [13] 96 % of control | dose: 60.0 mg/kg/injection, schedule: Q01DX010 (ip), vehicle: saline 86 % of control

COc1cc(C(=O)CC2CCCCN2)ccc1O (stereo not given)
inactive: [2] 100 % of control | [3] 96 % of control | [4] 96 % of control | [5] 93 % of control

CC(O)CCc1ccc(OC(=O)c2ccccc2)cc1 (stereo not given)
inactive: [6] 89 % of control | [7] 93 % of control | [8] 89 % of control | [14] 93 % of control

O=c1cnn(C2OC(CO)C(O)C2O)c(=O)[nH]1 (stereo not given)
inactive: [7] 105 % of control and 107 % of control | [8] 105 % of control and 120 % of control | dose: 300.0 mg/kg/injection, schedule: Q01DX010 (ip), vehicle: saline 90 % of control and 94 % of control | [14] 103 % of control and 110 % of control | dose: 700.0 mg/kg/injection, schedule: Q01DX010 (ip), vehicle: saline 86 % of control and 89 % of control | dose: 800.0 mg/kg/injection, schedule: Q01DX010 (ip), vehicle: saline 93 % of control and 101 % of control | dose: 1600.0 mg/kg/injection, schedule: Q01DX010 (ip), vehicle: saline 88 % of control

COC(=O)C1C(O)CCC2CN3CCc4c([nH]c5ccccc45)C3CC21 (stereo not given)
inactive: dose: 2.5 mg/kg/injection, schedule: Q01DX010 (ip), vehicle: saline 100 % of control | dose: 5.0 mg/kg/injection, schedule: Q01DX010 (ip), vehicle: saline 100 % of control | [2] 100 % of control | [3] 96 % of control

CC1CCC2(NC1)OC1CC3C4CCC5CC(OC6OC(CO)C(OC7OC(CO)C(O)C(OC8OCC(O)C(O)C8O)C7OC7OC(CO)C(O)C(O)C7O)C(O)C6O)CCC5(C)C4CCC3(C)C1C2C (stereo not given)
inactive: dose: 5.0 mg/kg/injection, schedule: Q01DX010 (sc), vehicle: steriod suspending solution 100 % of control | dose: 10.0 mg/kg/injection, schedule: Q01DX010 (sc), vehicle: steriod suspending solution 100 % of control

CCCCCCCCCCCCNCCCCCCCCCCCC
inactive: dose: 5.0 mg/kg/injection, schedule: Q01DX010 (ip), vehicle: other 106 % of control | dose: 10.0 mg/kg/injection, schedule: Q01DX010 (ip), vehicle: other 98 % of control

CCC(=O)O[C@H]1CC[C@H]2[C@@H]3CCC4=CC(=O)CC[C@]4(C)[C@H]3CC[C@]12C
inactive: dose: 62.5 mg/kg/injection, schedule: Q01DX010 (sc), vehicle: steriod suspending solution 96 % of control | dose: 125.0 mg/kg/injection, schedule: Q01DX010 (sc), vehicle: steriod suspending solution 100 % of control | dose: 250.0 mg/kg/injection, schedule: Q01DX010 (sc), vehicle: steriod suspending solution 100 % of control | dose: 500.0 mg/kg/injection, schedule: Q01DX010 (sc), vehicle: steriod suspending solution 100 % of control

Cc1n[nH]c(C)c1Br
inactive: dose: 150.0 mg/kg/injection, schedule: Q01DX010 (ip), vehicle: water 101 % of control | dose: 200.0 mg/kg/injection, schedule: Q01DX010 (ip), vehicle: water 104 % of control

CN(C)[C@@H]1C(=O)C(C(N)=O)=C(O)[C@@]2(O)C(=O)C3=C(O)c4c(O)cccc4C[C@H]3C[C@@H]12
inactive: dose: 3.75 mg/kg/injection, schedule: Q01DX010 (ip), vehicle: saline 107 % of control | [11] 107 % of control | [12] 100 % of control | [13] 103 % of control and 100 % of control

C1CCNC1
inactive: dose: 1.56 mg/kg/injection, schedule: Q01DX010 (ip), vehicle: saline 113 % of control | dose: 3.13 mg/kg/injection, schedule: Q01DX010 (ip), vehicle: saline 103 % of control | dose: 6.25 mg/kg/injection, schedule: Q01DX010 (ip), vehicle: saline 100 % of control | [9] 103 % of control and 96 % of control | [10] 86 % of control

CC(O)CCc1ccc(O)cc1 (stereo not given)
inactive: dose: 18.8 mg/kg/injection, schedule: Q01DX010 (ip), vehicle: saline 100 % of control | dose: 37.5 mg/kg/injection, schedule: Q01DX010 (ip), vehicle: saline 92 % of control | dose: 75.0 mg/kg/injection, schedule: Q01DX010 (ip), vehicle: saline 92 % of control | dose: 150.0 mg/kg/injection, schedule: Q01DX010 (ip), vehicle: saline 100 % of control

COc1ccc(C(=O)C[C@H]2CCC[C@@H](CC(=O)c3ccc(OC)cc3)N2C)cc1
inactive: [2] 107 % of control | [3] 100 % of control | [4] 100 % of control | [5] 107 % of control
